Test results published in US11000509B2, “Methods and compositions for daily ophthalmic administration of phentolamine to improve visual performance” (Ocuphire Pharma, Inc., priority 2013, dated 2021).
Where a name gives a salt, the structure may show the parent alone.

What was measured:
[1] = system: eyes of patients suffering from severe night vision difficulty; test: Example 1 clinical study: eye redness, CCLRU Redness Grading Scale regraded 0, 0.5, 1, 2, 3; format: in vivo, humans
Source text: Sixty patients with normal day vision (i.e., 20/40 or better) but which suffer from severe night vision difficulty were enrolled in the study. During the first period of the study, patients were randomized into three groups. The groups received either placebo, 0.5% (w/v) phentolamine mesylate, or 1.0% (w/v) phentolamine mesylate once daily for 15 days. […] During the second period of the study, all sixty patients were instructed to administer an ophthalmic solution of phentolamine mesylate (1% (w/v)) as needed, but no more than once daily to each eye. The ophthalmic solution of phentolamine mesylate contained: 1% (w/v) phentolamine mesylate, 4% (w/v) mannitol, 3 mM sodium acetate, and water. The placebo was a solution containing 4% (w/v) mannitol, 3 mM sodium acetate, and water.
Patients were to meet with a clinician for evaluation on study days 1, 4, 8, 15, and a post-dosing follow-up evaluation three or more days after administering the last dose in the second period. […]

[2] = system: eyes of patients suffering from severe night vision difficulty; test: Example 1 clinical study: mesopic contrast sensitivity with glare, Holladay Automated Contrast Sensitivity System; format: in vivo, humans; settings: for percentage of eyes with at least a 50% improvement in contrast sensitivity relative to baseline: 0.5% or 1.0% (w/v) once daily, beginning with day 8
Source text: Sixty patients with normal day vision (i.e., 20/40 or better) but which suffer from severe night vision difficulty were enrolled in the study. During the first period of the study, patients were randomized into three groups. The groups received either placebo, 0.5% (w/v) phentolamine mesylate, or 1.0% (w/v) phentolamine mesylate once daily for 15 days. The patients were observed on days 1, 4, 8, and 15 prior to administering the ophthalmic solution of phentolamine mesylate and then observed again two hours after the ophthalmic solution of phentolamine mesylate was administered. During the second period of the study, all sixty patients were instructed to administer an ophthalmic solution of phentolamine mesylate (1% (w/v)) as needed, but no more than once daily to each eye. The ophthalmic solution of phentolamine mesylate contained: 1% (w/v) phentolamine mesylate, 4% (w/v) mannitol, 3 mM sodium acetate, and water. The placebo was a solution containing 4% (w/v) mannitol, 3 mM sodium acetate, and water.
Patients in the study satisfied the following criteria: (1) 18-45 years of age and suffer from severe night vision difficulty, (2) 0.3 log improvement at two of five spatial frequencies (1.5, 3, 6, 12, and 18 cycles per degree) in at least one eye before and during illumination of the contralateral eye, using the Holladay Automated Contrast Sensitivity System test under mesopic room illumination with glare, and (3) photopic distance high-contrast visual acuity (corrected or uncorrected) of 20/40 or better in at least one eye.
Patients were to meet with a clinician for evaluation on study days 1, 4, 8, 15, and a post-dosing follow-up evaluation three or more days after administering the last dose in the second period. When patients met with the clinician, the following observations were made by the clinician: (1) mesopic contrast sensitivity with and without glare using the Holladay Automated Contrast Sensitivity System test, (2) mesopic distance high-contrast visual acuity using E-ETDRS Acuity Testing, (3) mesopic distance low-contrast visual acuity using E-ETDRS Acuity Testing, (4) photopic distance high-contrast visual acuity using E-ETDRS Acuity Testing, and (5) eye redness using the Cornea and Contact Lens Research Unit (CCLRU) Redness Grading Scale developed by the School of Optometry, University of New South Wales, but that the grading scale was as follows: (0) none, (0.5) very slight, (1) slight, (2) moderate, and (3) severe.
The primary efficacy endpoint is an increase of at least 0.3 log (50% or more improvement) in mesopic contrast sensitivity with glare at two or more frequencies at 1.5, 3, 6, 12, and 18 cycles per degree, measured with Holladay Automated Contrast Sensitivity System methodology.

eye redness ([1]; immediately after administration (FIG. 5)): increases
eye redness ([1]; measured prior to administration on days 4, 8, and 15 (FIG. 5)): returns to baseline
pharmacokinetic half-life ([2]; from percentage of eyes with at least 50% improvement in contrast sensitivity after the last dose, second period, 1% (w/v) (FIG. 4A)): approximately two
SMILES: Cc1ccc(N(CC2=NCCN2)c2cccc(O)c2)cc1 [Phentolamine Mesylate, phentolamine mesylate]
percentage of eyes with at least a 50% improvement in contrast sensitivity relative to baseline ([2]; tested prior to that day's dose (FIG. 2)): greater than 20%
percentage of eyes with at least a 50% improvement in contrast sensitivity relative to baseline ([2]; tested two hours after that day's dose (FIG. 1)): greater than 20%
percentage of eyes with at least a 50% improvement in contrast sensitivity, change over time ([2]; measured prior to that day's administration, from day 15 to day 32 (FIG. 3)): increased
efficacy with repeated dosing (contrast sensitivity) ([2]; once daily during the 15-day study period (FIGS. 1 and 2)): no diminution in efficacy was observed
